From patent publication US6515103B1 (priority 1996, dated 2003)
Where a SMILES comes first, the peptide text is derived from it. [ ]: non-standard residue; d: D form. Gla = N[C@@H](CC(C(=O)O)C(=O)O)C(=O)O

Key:
[1] = in vitro; settings: Frings audiogenic, mouse
[2] = molecular target: NMDA receptor; type: binding

CC[C@H](C)[C@H](NC(=O)[C@H](CC(C)C)NC(=O)[C@H](CCC(=O)O)NC(=O)[C@H](CCC(N)=O)NC(=O)[C@H](CC(N)=O)NC(=O)[C@H](CCC(=O)O)NC(=O)[C@H](CCC(N)=O)NC(=O)[C@H](CC(C)C)NC(=O)[C@H](CCC(=O)O)NC(=O)[C@H](CCC(=O)O)NC(=O)[C@H](CCC(=O)O)NC(=O)CN)C(=O)N[C@@H](CCCNC(=N)N)C(=O)N[C@@H](CCC(=O)O)C(=O)N[C@@H](CCCCN)C(=O)N[C@@H](CO)C(=O)N[C@@H](CC(N)=O)C(N)=O [ECon G]
half-life ([1]; brain homogenate): 1.6 min | half-life ([1]; tissue homogenate): 0.425 min

CC[C@H](C)[C@H](NC(=O)[C@H](CC(C)C)NC(=O)[C@H](C)NC(=O)[C@H](CCC(N)=O)NC(=O)[C@H](CC(N)=O)NC(=O)[C@H](C)NC(=O)[C@H](CCC(N)=O)NC(=O)[C@H](CC(C)C)NC(=O)[C@H](CC(C(=O)O)C(=O)O)NC(=O)[C@H](CC(C(=O)O)C(=O)O)NC(=O)[C@H](CCC(=O)O)NC(=O)CN)C(=O)N[C@@H](CCCNC(=N)N)C(N)=O [(A^7,10)1-13] (H-GE[Gla][Gla]LQANQALIR-NH2; N-terminus assumed)
IC50 [2]: 253 nM

CC[C@H](C)[C@H](NC(=O)[C@H](CC(C)C)NC(=O)[C@H](C)NC(=O)[C@H](CCC(N)=O)NC(=O)[C@H](CC(N)=O)NC(=O)[C@H](C)NC(=O)[C@H](CCC(N)=O)NC(=O)[C@H](CC(C)C)NC(=O)[C@H](CC(C(=O)O)C(=O)O)NC(=O)[C@H](CC(C(=O)O)C(=O)O)NC(=O)[C@H](CCC(=O)O)NC(=O)CN)C(N)=O [(A^7,10)1-12] (H-GE[Gla][Gla]LQANQALI-NH2; N-terminus assumed)
IC50 [2]: 300 nM

CC[C@H](C)[C@H](NC(=O)[C@H](CC(C)C)NC(=O)[C@H](CC(C(=O)O)C(=O)O)NC(=O)[C@H](CCC(N)=O)NC(=O)[C@H](CC(N)=O)NC(=O)[C@H](CC(C(=O)O)C(=O)O)NC(=O)[C@H](CCC(N)=O)NC(=O)[C@H](CC(C)C)NC(=O)[C@H](CCC(=O)O)NC(=O)[C@H](CC(C(=O)O)C(=O)O)NC(=O)[C@H](CCC(=O)O)NC(=O)CN)C(=O)N[C@@H](CCCNC(=N)N)C(=O)N[C@@H](CC(C(=O)O)C(=O)O)C(=O)N[C@@H](CCCCN)C(=O)N[C@@H](CO)C(=O)N[C@@H](CC(N)=O)C(N)=O [E^4]
IC50 [2]: ≥ 20000 nM

CC[C@H](C)[C@H](NC(=O)[C@H](CC(C)C)NC(=O)[C@H](Cc1ccc(O)cc1)NC(=O)[C@H](CCC(N)=O)NC(=O)[C@H](CC(N)=O)NC(=O)[C@H](C)NC(=O)[C@H](CCC(N)=O)NC(=O)[C@H](CC(C)C)NC(=O)[C@H](CC(C(=O)O)C(=O)O)NC(=O)[C@H](CC(C(=O)O)C(=O)O)NC(=O)[C@H](CCC(=O)O)NC(=O)CN)C(=O)N[C@@H](CCCNC(=N)N)C(=O)N[C@@H](CC(C(=O)O)C(=O)O)C(=O)N[C@@H](CCCCN)C(=O)N[C@@H](CO)C(=O)N[C@@H](CC(N)=O)C(N)=O [A^7,Y^10] (H-GE[Gla][Gla]LQANQYLIR[Gla]KSN-NH2; N-terminus assumed)
IC50 [2]: 79 nM
